In patent publication US9718760B2, “Plasminogen activator inhibitor-1 inhibitors and methods of use thereof” (THE REGENTS OF THE UNIVERSITY OF MICHIGAN, priority 2012, dated 2017):

Key:
Format in all cases: biochemical
[1] = target: anti-thrombin III (ATIII) (Homo sapiens (Human), UniProt P01008); experiment: Fluorometric ATIII/αIIa IC50 plate assay at pH 7.8 (specificity control); conditions: physiologic buffer
Method: (§1) Additional fluorometric plate assays were carried out, as set out below, to determine the IC50 of various synthesized compounds as PAI-1 inhibitors.
Alpha-thrombin is an active enzyme, related to uPA or tPA. Alpha-thrombin is inhibited by the serpin ATIII, which is closely related to PAI-1. This assay was used therefore as a control in testing for specificity of the PAI-1 inhibitor compounds. Thus, any compound that is specific for inhibiting PAI-1 should not inhibit ATIII.
PAI-1 inhibitor compounds were dissolved in DMSO to a final concentration of (10-50 mM), depending upon solubility. […] 100 μL of 100 μM fluorogenic, tripeptide aminomethylcoumarin benzoyl Phe-Val-Arg-AMC substrate was then added and residual αIIa activity was determined based upon cleavage of this substrate. The rate of AMC release by αIIa was measured at an excitation wavelength of 370 nm and an emission wavelength of 440 nm. Controls included PAI-1 and αIIa in the absence of compound and αIIa alone. Percent PAI-1 inhibition is calculated using the following formula: [(αIIa alone-αIIa/PAI-1+ compound)/(αIIa alone-PAI-1/αIIa)]*100%. The IC50 is calculated using Graphit (IC50 0-100%).

[2] = target: T1, recombinant active human PAI-1 (Homo sapiens (Human), UniProt P05121); experiment: Fluorometric PAI-1/tPA IC50 plate assay at pH 7.8; conditions: physiologic buffer
Method: as §1
PAI-1 inhibitor compounds were dissolved in DMSO to a final concentration of (10-50 mM), depending upon solubility. […] Tissue type PA activity in each reaction mixture was determined by adding Phe-Gly-Arg-AMC fluorogenic substrate (100 μL of 100 μM) (Centerchem). The rate of AMC release by tPA was measured at an excitation wavelength of 370 nm and an emission wavelength of 440 nm. Controls included PAI-1 and tPA in the absence of compound and tPA alone. Percent PAI-1 inhibition was calculated using the following formula: [(tPA alone-tPA/PAI-1+ compound)/(tPA alone-PAI-1/tPA)]*100%. The IC50 is calculated using Graphit (IC50 0-100%).

[3] = target: T1, recombinant active human PAI-1; experiment: Fluorometric PAI-1/uPA IC50 plate assay at pH 7.8; conditions: physiologic buffer
Method: To determine the efficacy of various synthesized compounds as PAI-1 inhibitors at pH 7.8, additional fluorometric plate assays were carried out to measure the half maximal inhibitory concentration (IC50) of these compounds on recombinant active human PAI-1 in vitro.
PAI-1 inhibitor compounds were dissolved in DMSO to a final concentration of (10-50 mM), depending upon solubility. […] Fluorescence, as a measure of the rate of AMC release by uPA, was read at the following wavelengths; excitation 370 nm, emission 440 nm. Controls included PAI-1 and uPA in the absence of compound and uPA alone. Percent PAI-1 inhibition was calculated using the following formula: [(uPA alone-uPA/PAI-1+ compound)/(uPA alone-PAI-1/uPA)]*100%. The IC50 was calculated using Graphit (IC50 0-100%).

[4] = target: T1, recombinant active human PAI-1; experiment: Fluorometric PAI-1/uPA IC50 plate assay at pH 7.4
Method: To determine the efficacy of various synthesized compounds as PAI-1 inhibitors, a fluorometric plate assay was carried out to measure the half maximal inhibitory concentration (IC50) of these compounds on recombinant active human PAI-1 in vitro. An IC50 is a measure of the effectiveness of a compound in inhibiting biological or biochemical function. Stated another way, IC50 represents the concentration of a drug that is required for 50% inhibition in vitro.
PAI-1 inhibitor compounds were dissolved in DMSO to a final concentration of (10-50 mM), depending upon solubility. Compounds were then diluted in physiologic buffer (40 mM HEPES, 100 mM NaCl, 0.05% Tween-20, pH7.4) containing 10% DMSO and a dilution series (from 0 to 1000 uM depending on solubility) was prepared. 80 μL of compound was added per well to a 96-well black, opaque microplate in duplicate. 10 μL of 20 nM Recombinant active human PAI-1 (Molecular Innovations) in physiologic buffer (40 mM HEPES, 100 mM NaCl, 0.05% Tween-20, 10% DMSO, pH 7.4), or […] physiologic buffer with 10% human plasma, was added and the mixture was agitated for 15 minutes at room temperature. 10 μL of 25 nM uPA (Rheotromb®) was added to each reaction well and the plate was agitated for an additional 30 minutes at room temperature. Tripeptide aminomethylcoumarin Gly-Gly-Arg-AMC (Calbiochem) fluorogenic substrate (100 μL of 100 μM) was then added and residual uPA activity was determined based upon cleavage of this substrate. The rate of AMC release by uPA (fluorescence) was measured at an excitation wavelength of 370 nm and an emission wavelength of 440 nm. Controls included PAI-1 and uPA in the absence of compound and uPA alone. Percent PAI-1 inhibition was calculated using the following formula: [(uPA alone-uPA/PAI-1+ compound)/(uPA alone-PAI-1/uPA)]*100%. The IC50 was calculated using Graphit (IC50 0-100%).

[5] = physiologic buffer (40 mM HEPES, 100 mM NaCl, 0.05% Tween-20, 10% DMSO), read-out: PAI-1/uPA IC50 in buffer

T1 sequence (P05121 24-402): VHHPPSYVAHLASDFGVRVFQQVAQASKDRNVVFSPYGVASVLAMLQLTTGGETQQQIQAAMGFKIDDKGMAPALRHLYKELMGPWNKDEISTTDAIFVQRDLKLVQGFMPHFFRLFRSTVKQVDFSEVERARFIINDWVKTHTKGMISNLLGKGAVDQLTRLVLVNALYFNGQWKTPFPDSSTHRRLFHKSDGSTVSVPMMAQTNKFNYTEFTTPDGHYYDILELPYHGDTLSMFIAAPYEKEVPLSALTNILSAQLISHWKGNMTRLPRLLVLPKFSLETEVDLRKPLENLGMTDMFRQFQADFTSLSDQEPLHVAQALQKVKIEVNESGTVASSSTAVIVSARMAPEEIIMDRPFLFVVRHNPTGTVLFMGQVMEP
Chain of anti-thrombin III (ATIII) (P01008 33-464 limits assumed, species assumed): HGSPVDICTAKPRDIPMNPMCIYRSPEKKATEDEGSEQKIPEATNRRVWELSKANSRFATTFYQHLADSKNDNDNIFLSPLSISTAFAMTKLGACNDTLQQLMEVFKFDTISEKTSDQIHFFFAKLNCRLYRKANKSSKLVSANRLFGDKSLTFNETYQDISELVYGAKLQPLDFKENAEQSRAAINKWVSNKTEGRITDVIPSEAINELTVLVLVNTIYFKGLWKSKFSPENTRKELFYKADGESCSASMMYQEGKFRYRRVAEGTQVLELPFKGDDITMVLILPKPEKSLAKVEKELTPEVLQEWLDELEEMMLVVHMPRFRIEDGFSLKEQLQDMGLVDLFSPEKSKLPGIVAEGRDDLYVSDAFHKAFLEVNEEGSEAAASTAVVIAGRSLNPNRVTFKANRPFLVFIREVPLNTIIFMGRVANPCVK

SMILES | IC50 [1] [µM] | IC50 [2] [µM] | IC50 [3] [µM] | IC50 [4, 5] [µM] | IC50 ([4]; physiologic buffer with 1.5% BSA (15 mg/mL), read-out: PAI-1/uPA IC50 in 1.5% BSA buffer) [µM] | IC50 ([4]; physiologic buffer with 10% human plasma, read-out: PAI-1/uPA IC50 in 10% plasma buffer) [µM]
CCCCCCCCNC(=O)c1cc(O)c(O)c(O)c1 [C161] | 1670 | 2.21 | 3.7 |  |  | 
CCCCCCCCN(S(=O)(=O)c1cccc(O)c1)S(=O)(=O)c1cccc(O)c1 [C293] |  |  | 77.6 | 123 |  | 
O=S(=O)(NCc1ccccc1)c1ccc(O)c(O)c1 [C160] | 2330 | 58.2 | 39 |  |  | 
CC(C)(C)OC(=O)NCCCOC(=O)c1cc(O)c(O)c(O)c1 [C156] |  | 581 | 189 |  |  | 
CCCCCCCCN(S(=O)(=O)c1cc(F)c(O)c(F)c1)S(=O)(=O)c1cc(F)c(O)c(F)c1 [C155] | 2330 | 34.8 | 30.4 |  |  | 
O=S(=O)(NCc1ccc(Cl)c(C(F)(F)F)c1)c1ccc(O)c(O)c1 [C303] |  |  | 13.6 | 12.6 |  | 
O=C(CCc1ccc(O)c(O)c1)NCc1ccc(Cl)c(C(F)(F)F)c1 [C330, N-(4-chloro-3-(trifluoromethyl)benzyl)-3-(3,4-dihydroxyphenyl)propanamide] |  |  | 423 | 365 | 112 | 115
O=S(=O)(c1ccc(O)c(O)c1)N(CCc1ccccn1)S(=O)(=O)c1ccc(O)c(O)c1 [C162] |  | 7.59 | 3.9 |  |  | 

Molecules with a lower IC50 [3], results first:

IC50 [1] [µM] | IC50 [2] [µM] | IC50 [3] [µM] | IC50 [4, 5] [µM] | IC50 ([4]; physiologic buffer with 1.5% BSA (15 mg/mL), read-out: PAI-1/uPA IC50 in 1.5% BSA buffer) [µM] | IC50 ([4]; physiologic buffer with 10% human plasma, read-out: PAI-1/uPA IC50 in 10% plasma buffer) [µM] | SMILES
44.4 | 0.98 | 0.25 |  |  |  | CCCCCCCCCCN(S(=O)(=O)c1ccc(O)c(O)c1)S(=O)(=O)c1ccc(O)c(O)c1 [C157]
547 | 1.44 | 2.6 |  |  |  | CCCCCCCCCCCCN(S(=O)(=O)c1ccc(O)c(O)c1)S(=O)(=O)c1ccc(O)c(O)c1 [C158]
 | 0.611 | 0.288 |  |  |  | O=S(=O)(c1ccc(O)c(O)c1)N(c1cccc(C(F)(F)F)c1)S(=O)(=O)c1ccc(O)c(O)c1 [C163]
 | 0.51 | 0.35 |  |  |  | O=S(=O)(c1ccc(O)c(O)c1)N(c1ccc(-c2ccccc2)cc1)S(=O)(=O)c1ccc(O)c(O)c1 [C165]
87 | 1.71 | 1.57 |  |  |  | CCCCCCCCN(S(=O)(=O)c1ccc(O)c(O)c1)S(=O)(=O)c1cc(F)c(O)c(F)c1 [C152]
 | 1.02 | 0.7 |  |  |  | O=S(=O)(c1ccc(O)c(O)c1)N(c1ccccc1)S(=O)(=O)c1ccc(O)c(O)c1 [C153]
